Active and inactive are the calls of the source.
How the values were obtained:
[1] = target: T1, Bile acid receptor (Homo sapiens) (UniProt Q96RI1); test: Binding affinity to human GTS-tagged FXR LBD using fluorescein-tagged SRC2-2 at 10 nM after 15 to 30 mins by TR-FRET assay
T1 sequence (whole entry): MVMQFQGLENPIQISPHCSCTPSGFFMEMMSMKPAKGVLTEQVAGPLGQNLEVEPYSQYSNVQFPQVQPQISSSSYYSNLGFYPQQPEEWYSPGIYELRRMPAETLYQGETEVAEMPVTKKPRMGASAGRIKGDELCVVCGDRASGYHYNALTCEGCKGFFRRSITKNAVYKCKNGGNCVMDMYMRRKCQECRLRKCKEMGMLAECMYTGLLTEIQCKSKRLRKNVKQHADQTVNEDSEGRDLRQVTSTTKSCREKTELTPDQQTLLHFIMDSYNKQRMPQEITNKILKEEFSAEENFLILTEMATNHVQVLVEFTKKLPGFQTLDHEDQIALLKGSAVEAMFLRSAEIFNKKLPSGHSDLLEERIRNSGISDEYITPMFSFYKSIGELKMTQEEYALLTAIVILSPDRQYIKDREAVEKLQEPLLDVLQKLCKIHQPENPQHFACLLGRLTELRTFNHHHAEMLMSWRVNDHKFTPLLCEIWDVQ

[2] = target: T1, Bile acid receptor (Homo sapiens); test: Binding affinity to human GTS-tagged FXR LBD using fluorescein-tagged SRC2-2 at 10 nM after 15 to 30 mins by TR-FRET assay in presence of GW4064
[3] = target: T1, Bile acid receptor (Homo sapiens); test: Binding affinity to human GTS-tagged FXR LBD using fluorescein-tagged SRC2-2 at 10 nM after 15 to 30 mins by TR-FRET assay in presence of fexaramine

Measured: Activity

CC(C)c1onc(-c2c(Cl)cccc2Cl)c1COc1ccc(/C=C/c2cccc(C(=O)NNC(=S)Nc3ccc(-c4c5ccc(=O)cc-5oc5cc(O)ccc45)c(C(=O)O)c3)c2)c(Cl)c1
active: all assays above
